Entries after “also recorded” stand apart in the source; their conditions may differ.
What was measured:
Format in all cases: cell-based, human
MECP2-KO neurons [1] = experiment: Neuronal morphology (neurites, spine density); conditions: vs KO untreated
Method: Spine density and morphology/stability/motility. pHIV7/Syn-EGFP lentivirus was prepared by transfecting HEK cells using the transfection agent polyethyleneimine (Polysciences, Inc., Warrington, Pa., USA), pSyn-EGFP and packaging plasmids pMDL, Rev RSV and VSVG. During cortical neuron differentiation, on day 40, control and MECP2dup neurons were transduced with pHIV7/syn-EGFP. Post transduction, neurons were further differentiated until day 70 and were fixed with 4% PFA and further processed for imaging. Confocal images were obtained using a confocal laser-scanning microscope (Nikon), 60× oil objective, with a sequential acquisition setting at 4096×4096 pixels resolution. Each image is a Z-series projection of ˜7 to 15 images, averaged 2 times and taken at 0.5 μm depth intervals. GFP-labeled differentiated neurons were chosen randomly for quantification. Quantitative analysis was performed in a blinded manner. Dendrites on primary branches were selected randomly and for each neuron two to three segments of 10 μm were analyzed. Morphometric measurements were performed manually using the ImageJ software (1.44p version). Each spine on the dendrites was manually traced. The length and head width of each spine was automatically measured and used to categorize the spines. Specifically, spines where defined as thin and filopodia (immature) or mushroom and stubby (mature) according to the criteria defined previously. Twenty-two (51 segments of 10 μm) and 18 (42 segments of 10 μm) neurons were analyzed for the control and MECP2dup neurons, respectively; two clones for each condition.
Analysis of neuronal morphology. PSC-derived neuronal morphometry was performed as described in Chailangkarn et al. Briefly, neurons with branching neurites featuring dendritic spine-like protrusions were selected, and neuronal morphology was quantified using Neurolucida v9 (MBF Bioscience, Williston, Vt.) via Nikon Eclipse E600 microscope (40× oil). Measurements were as follows: Spine number: number of spines protruding from neurites; soma size: soma area on cross-section; spine length: summed length of all spines per neuron. The rater traced the same neuron after a period of time to ensure intra-rater reliability.

[2] = tested on: MECP2-KO cortical organoids; experiment: Cortical organoid diameter; conditions: 1 μM for one month, 2-month old organoids
Method: Generation of cortical organoids. Cortical organoid generation was performed according to Trujillo et al. (Cell Stem Cell 25:558-569.e7 (2019)). iPSCs cultured 5-7 d were dissociated with 1:1 Accutase (Life Technologies) in PBS, and 4×10^6 cells/well in mTeSR1 supplemented with 10 μM SB (Stemgent), 1 μM Dorso (R&D Systems), and 5 μM Y-27632 (EMD-Millipore, Burlington, Mass., USA) were plated on rotating suspension. […]
Nefiracetam and PHA 543613 rescue network activity in MECP2-KO cortical organoids. The therapeutic efficacy of Nefiracetam and PHA 543613 was evaluated with cortical organoids, a complex, three-dimensional human neurodevelopmental model that closely recapitulates aspects of human fetal neurodevelopment. […]

[3] = tested on: MECP2-mosaic (CTR/KO) neurospheres; experiment: Nuclei size in neurospheres; conditions: vs CTR/KO untreated
MECP2-KO neurons [4] = experiment: Co-localized pre/postsynaptic puncta quantification in neurons; conditions: one-month old MECP2-KO neurons treated two weeks
Method: Pharmacologic treatment. One-month old cortical organoids were treated for 1 mo with either Nefiracetam (10 μM) or PHA 543613 (10 μM) during media changes.
Synaptic puncta quantification. Co-localized pre and postsynaptic puncta (Vglut and Homer1 immunostained) along MAP2-positive processes were quantified. Primary antibodies (see above) incubated 2 h, secondary antibodies incubated 1 h, and coverslips were mounted. Slides were analyzed under fluorescence microscopy.
Pharmacologic screening identifies two compounds that specifically reverse MECP2-KO phenotypes. 14 commercially available pharmacologic compounds with mechanisms of action that counteract the synapse and neurotransmitter pathologies were selected and which are identified in FIG. 5B. […] MECP2-KO and control neurons were treated with each of the 14 compounds and employed a tiered series of assays to identify those that could selectively rescue MECP2-KO pathology without affecting controls. […] The capacity of these compounds to increase pre and post co-localized synaptic puncta in MECP2-KO neurons were evaluated, again eliminating the drugs that affected control neurons (see FIG. 5F-G, and FIG. 6C-D).

SMILES | number of neurites (MECP2-KO neurons [1]) | total neurite length (MECP2-KO neurons [1]) | diameter of MECP2-KO organoids [2] | nuclei size in neurospheres [3] | synaptogenesis / co-localized synaptic puncta (MECP2-KO neurons [4])
Cc1cccc(C)c1NC(=O)CN1CCCC1=O [Nefiracetam, nefiracetam] | did not increase; also recorded: did not rescue | did not increase; also recorded: did not rescue | increased | did not rescue | specifically increased synaptogenesis
O=C(N[C@H]1CN2CCC1CC2)c1cc2ccoc2cn1 [PHA 543613, N-[(3R)-1-azabicyclo[2.2.2]oct-3-yl]furo[2,3-c]pyridine-5-carboxamide] | did not increase; also recorded: did not rescue | did not increase; also recorded: did not rescue | increased | did not rescue | increases synaptic puncta

— patent US20230102192A1, “THERAPIES FOR THE TREATMENT OF DISEASES AND DISORDERS ASSOCIATED WITH ABNORMAL EXPRESSION OF A NEURAL-ASSOCIATED GENE” (The Regents of the University of California, priority 2020, published 2023)
